Laboratory results as given in ChEMBL document CHEMBL5465560, “Selectivity Literature for EUbOPEN Chemogenomic Library” (2024).

How the values were obtained:
[1] = target: T1, Inhibitor of nuclear factor kappa-B kinase subunit alpha (Homo sapiens) (UniProt O15111); experiment: Selectivity interaction (KinomeScan (DiscoverX)) EUB0000666a CHUK; conditions: at 10 µM
T1 sequence (whole entry): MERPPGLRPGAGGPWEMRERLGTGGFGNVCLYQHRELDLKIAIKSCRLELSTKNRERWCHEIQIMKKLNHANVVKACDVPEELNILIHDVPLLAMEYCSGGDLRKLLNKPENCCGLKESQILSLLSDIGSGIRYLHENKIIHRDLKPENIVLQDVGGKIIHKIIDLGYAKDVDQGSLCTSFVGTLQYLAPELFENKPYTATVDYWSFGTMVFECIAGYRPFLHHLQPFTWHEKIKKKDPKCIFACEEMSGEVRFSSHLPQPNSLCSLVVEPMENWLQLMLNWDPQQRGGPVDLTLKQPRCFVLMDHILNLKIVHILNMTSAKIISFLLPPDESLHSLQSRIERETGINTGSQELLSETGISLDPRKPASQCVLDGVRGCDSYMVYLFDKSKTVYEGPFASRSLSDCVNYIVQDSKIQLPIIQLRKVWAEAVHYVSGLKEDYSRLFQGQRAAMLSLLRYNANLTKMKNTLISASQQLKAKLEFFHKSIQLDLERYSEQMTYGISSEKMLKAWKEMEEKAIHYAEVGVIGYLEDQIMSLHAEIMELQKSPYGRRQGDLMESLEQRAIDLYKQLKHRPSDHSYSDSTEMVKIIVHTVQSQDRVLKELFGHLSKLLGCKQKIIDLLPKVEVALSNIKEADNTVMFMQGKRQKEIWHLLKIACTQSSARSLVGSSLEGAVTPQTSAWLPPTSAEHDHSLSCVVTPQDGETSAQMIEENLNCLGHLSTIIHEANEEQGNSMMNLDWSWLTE

[2] = target: Sigma non-opioid intracellular receptor 1 (Homo sapiens) (UniProt Q99720); experiment: Selectivity interaction (Eurofins CEREP Diversity Profile (receptors and ion channels)) EUB0000279b SIGMAR1; conditions: at 10 µM
Chain of Sigma non-opioid intracellular receptor 1 (Homo sapiens) (Q99720 whole entry): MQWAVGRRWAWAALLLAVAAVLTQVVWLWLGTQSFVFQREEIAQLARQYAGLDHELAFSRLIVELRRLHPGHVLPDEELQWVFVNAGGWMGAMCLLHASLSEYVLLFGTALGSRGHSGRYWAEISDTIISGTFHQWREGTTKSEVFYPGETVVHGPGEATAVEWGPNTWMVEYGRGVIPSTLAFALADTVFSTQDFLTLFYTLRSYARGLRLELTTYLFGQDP

[3] = target: 5'-AMP-activated protein kinase catalytic subunit alpha-1 (Homo sapiens, UniProt Q13131); experiment: Selectivity interaction (ActivX KiNativ screen (kinase selectivity in THP-1 cell lysates)) EUB0000639a PRKAA1; format: subcellular; conditions: lysate
Chain of 5'-AMP-activated protein kinase catalytic subunit alpha-1 (Q13131 whole entry, looked up): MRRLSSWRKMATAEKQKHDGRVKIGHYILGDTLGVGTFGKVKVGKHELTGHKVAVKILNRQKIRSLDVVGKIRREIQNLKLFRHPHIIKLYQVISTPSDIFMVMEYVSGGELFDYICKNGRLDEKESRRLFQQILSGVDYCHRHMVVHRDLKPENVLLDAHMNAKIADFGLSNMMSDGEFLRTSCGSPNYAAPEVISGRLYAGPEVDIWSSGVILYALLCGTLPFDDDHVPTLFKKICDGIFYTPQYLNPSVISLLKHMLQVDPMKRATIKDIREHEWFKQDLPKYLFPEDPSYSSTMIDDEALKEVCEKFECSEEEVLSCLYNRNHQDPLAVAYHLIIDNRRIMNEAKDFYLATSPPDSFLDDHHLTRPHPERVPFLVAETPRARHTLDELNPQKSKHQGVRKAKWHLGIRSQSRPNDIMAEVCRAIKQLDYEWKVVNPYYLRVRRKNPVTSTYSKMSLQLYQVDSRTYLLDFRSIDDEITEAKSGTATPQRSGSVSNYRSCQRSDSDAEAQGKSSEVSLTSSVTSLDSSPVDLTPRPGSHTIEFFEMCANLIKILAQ

[4] = target: Serine/threonine-protein kinase 38 (Homo sapiens) (UniProt Q15208); experiment: Selectivity interaction (ActivX KiNativ screen (kinase selectivity in THP-1 cell lysates)) EUB0000639a STK38; format: subcellular; conditions: lysate
Chain of Serine/threonine-protein kinase 38 (Homo sapiens) (Q15208 2-465 limits assumed): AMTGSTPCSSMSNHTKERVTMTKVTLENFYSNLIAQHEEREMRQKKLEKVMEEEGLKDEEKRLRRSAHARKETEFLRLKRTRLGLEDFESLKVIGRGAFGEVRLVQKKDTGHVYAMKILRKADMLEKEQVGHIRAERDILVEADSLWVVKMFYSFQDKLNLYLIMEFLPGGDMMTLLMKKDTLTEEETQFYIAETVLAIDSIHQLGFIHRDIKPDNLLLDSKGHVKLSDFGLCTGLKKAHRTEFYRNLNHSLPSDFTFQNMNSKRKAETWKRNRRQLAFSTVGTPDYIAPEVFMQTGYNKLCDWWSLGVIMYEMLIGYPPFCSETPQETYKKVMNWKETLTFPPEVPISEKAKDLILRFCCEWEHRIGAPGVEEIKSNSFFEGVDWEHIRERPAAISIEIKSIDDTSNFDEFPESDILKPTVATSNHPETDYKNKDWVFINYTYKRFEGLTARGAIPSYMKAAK

[5] = target: Calcium/calmodulin-dependent protein kinase type II subunit delta (Homo sapiens) (UniProt Q13557); experiment: Selectivity interaction (ActivX KiNativ screen (kinase selectivity in THP-1 cell lysates)) EUB0000639a CAMK2D; format: subcellular; conditions: lysate, at 0.04 µM
Chain of Calcium/calmodulin-dependent protein kinase type II subunit delta (Homo sapiens) (Q13557 whole entry): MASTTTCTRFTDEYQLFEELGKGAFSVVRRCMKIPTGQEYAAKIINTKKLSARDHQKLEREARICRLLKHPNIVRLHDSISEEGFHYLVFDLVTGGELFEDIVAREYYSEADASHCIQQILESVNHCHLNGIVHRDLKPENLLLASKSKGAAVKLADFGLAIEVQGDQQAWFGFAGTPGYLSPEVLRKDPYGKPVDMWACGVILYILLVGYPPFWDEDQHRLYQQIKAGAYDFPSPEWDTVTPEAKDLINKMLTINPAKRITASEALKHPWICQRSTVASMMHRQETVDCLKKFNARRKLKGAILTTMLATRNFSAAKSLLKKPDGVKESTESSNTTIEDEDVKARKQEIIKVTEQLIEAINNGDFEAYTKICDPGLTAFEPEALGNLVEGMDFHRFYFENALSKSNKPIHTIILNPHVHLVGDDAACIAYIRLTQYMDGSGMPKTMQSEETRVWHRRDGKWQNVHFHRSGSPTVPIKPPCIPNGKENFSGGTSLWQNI

[6] = target: Insulin receptor-related protein (Homo sapiens) (UniProt P14616); experiment: Selectivity interaction (KinomeScan (DiscoverX)) EUB0000092b INSRR; conditions: at 10 µM
Chain of Insulin receptor-related protein (Homo sapiens) (P14616 27-742 limits assumed): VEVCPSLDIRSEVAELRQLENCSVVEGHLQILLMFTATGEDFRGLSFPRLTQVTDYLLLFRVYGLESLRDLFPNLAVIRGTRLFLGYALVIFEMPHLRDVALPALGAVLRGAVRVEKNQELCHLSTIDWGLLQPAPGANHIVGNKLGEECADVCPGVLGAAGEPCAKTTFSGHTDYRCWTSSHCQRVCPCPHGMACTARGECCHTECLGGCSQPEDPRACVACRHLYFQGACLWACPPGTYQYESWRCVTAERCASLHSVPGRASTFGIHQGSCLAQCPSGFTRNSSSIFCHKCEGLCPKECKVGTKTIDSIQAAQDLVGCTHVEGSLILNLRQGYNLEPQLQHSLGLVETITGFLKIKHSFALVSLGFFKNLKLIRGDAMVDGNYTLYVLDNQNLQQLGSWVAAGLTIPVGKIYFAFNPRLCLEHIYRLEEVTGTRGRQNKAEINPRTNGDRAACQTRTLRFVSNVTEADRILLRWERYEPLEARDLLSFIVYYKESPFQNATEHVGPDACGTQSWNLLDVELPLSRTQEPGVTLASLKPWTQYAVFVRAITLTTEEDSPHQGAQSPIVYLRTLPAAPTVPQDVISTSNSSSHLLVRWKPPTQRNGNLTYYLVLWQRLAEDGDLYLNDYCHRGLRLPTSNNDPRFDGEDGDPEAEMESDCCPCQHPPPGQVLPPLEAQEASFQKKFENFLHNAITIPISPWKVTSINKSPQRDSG
Chain of Insulin receptor-related protein (Homo sapiens) (P14616 747-1297 limits assumed): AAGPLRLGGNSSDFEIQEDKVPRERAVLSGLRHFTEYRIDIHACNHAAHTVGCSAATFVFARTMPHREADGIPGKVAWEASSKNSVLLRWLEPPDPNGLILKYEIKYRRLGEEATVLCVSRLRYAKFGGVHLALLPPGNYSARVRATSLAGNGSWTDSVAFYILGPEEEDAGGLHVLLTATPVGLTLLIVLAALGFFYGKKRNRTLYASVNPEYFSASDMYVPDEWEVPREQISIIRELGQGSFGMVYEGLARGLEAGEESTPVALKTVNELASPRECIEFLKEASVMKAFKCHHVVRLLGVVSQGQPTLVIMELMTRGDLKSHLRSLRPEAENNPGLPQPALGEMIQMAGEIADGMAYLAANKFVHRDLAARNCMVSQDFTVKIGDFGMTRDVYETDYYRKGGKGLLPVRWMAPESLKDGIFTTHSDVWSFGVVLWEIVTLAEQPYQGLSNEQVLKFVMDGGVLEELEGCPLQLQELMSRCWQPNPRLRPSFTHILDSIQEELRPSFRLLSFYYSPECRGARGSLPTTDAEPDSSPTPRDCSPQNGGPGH

[7] = target: Rho-associated protein kinase 2 (Homo sapiens, UniProt O75116); experiment: Selectivity interaction (KinomeScan (DiscoverX)) EUB0000045b ROCK2
Chain of Rho-associated protein kinase 2 (O75116 whole entry, looked up): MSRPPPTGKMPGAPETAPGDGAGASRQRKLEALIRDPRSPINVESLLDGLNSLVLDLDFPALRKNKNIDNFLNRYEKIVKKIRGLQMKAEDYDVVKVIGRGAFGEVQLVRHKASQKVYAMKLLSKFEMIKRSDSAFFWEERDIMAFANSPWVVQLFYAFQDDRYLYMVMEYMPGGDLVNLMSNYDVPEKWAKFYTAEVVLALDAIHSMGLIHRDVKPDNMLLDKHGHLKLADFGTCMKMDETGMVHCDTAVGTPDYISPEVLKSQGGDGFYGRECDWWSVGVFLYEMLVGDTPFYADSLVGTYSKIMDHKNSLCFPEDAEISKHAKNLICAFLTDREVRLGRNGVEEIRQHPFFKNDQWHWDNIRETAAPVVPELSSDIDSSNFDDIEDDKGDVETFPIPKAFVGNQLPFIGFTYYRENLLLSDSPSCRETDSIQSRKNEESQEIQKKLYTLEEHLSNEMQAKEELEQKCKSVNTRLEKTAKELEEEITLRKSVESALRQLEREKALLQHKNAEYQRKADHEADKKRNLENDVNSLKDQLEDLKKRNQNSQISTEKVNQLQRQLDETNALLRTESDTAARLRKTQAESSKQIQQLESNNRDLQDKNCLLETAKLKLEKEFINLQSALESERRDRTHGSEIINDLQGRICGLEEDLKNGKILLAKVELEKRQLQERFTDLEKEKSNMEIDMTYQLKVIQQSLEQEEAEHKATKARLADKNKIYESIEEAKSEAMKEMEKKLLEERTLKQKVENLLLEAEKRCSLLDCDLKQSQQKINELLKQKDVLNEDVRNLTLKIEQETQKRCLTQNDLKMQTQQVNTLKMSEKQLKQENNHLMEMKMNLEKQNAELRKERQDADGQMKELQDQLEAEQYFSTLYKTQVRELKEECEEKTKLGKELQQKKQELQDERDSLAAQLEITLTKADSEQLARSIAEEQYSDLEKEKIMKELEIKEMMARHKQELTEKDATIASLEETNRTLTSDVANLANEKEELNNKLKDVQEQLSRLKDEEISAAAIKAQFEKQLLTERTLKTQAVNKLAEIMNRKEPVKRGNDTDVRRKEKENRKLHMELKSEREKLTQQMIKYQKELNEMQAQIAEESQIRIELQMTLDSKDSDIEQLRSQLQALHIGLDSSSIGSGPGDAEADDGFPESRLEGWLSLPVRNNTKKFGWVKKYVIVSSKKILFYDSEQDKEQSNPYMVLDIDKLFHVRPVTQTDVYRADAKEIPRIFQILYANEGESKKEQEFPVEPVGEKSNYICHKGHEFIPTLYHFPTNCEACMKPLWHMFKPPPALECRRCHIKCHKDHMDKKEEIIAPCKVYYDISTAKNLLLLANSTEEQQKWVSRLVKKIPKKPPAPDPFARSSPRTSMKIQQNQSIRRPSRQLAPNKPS

[8] = test system: Epidermal growth factor receptor (Homo sapiens), P00533 [UNDEFINED MUTATION]; experiment: Selectivity interaction (KinomeScan (DiscoverX)) EUB0000618a EGFR; conditions: at 10 µM
[9] = target: T2, Mitogen-activated protein kinase kinase kinase 7 (Homo sapiens) (UniProt O43318); experiment: Selectivity interaction (KinomeScan (DiscoverX)) EUB0001619a MAP3K7; conditions: at 1 µM
T2 sequence (whole entry): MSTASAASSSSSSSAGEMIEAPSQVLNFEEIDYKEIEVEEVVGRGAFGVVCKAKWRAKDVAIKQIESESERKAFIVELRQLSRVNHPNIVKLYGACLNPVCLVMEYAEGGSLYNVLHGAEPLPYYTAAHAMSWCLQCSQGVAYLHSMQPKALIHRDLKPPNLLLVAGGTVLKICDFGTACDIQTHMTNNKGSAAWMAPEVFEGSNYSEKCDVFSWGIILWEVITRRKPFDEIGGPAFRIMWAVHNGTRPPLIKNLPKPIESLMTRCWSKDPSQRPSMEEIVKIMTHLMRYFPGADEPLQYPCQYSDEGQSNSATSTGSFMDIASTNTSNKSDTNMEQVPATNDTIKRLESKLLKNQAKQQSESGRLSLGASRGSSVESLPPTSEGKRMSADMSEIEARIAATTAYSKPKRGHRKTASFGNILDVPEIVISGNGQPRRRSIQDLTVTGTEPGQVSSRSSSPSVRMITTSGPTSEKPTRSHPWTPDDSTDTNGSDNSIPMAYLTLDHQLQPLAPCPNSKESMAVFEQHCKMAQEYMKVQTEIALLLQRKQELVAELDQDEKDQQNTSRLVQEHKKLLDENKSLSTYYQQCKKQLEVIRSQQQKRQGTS

[10] = target: 5-hydroxytryptamine receptor 2A (Homo sapiens, UniProt P28223); experiment: Selectivity interaction (Panel of kinases, GPCRs, ion channels and transporters (enzymatic assay)) EUB0000266bCl HTR2A
[11] = target: Serine/threonine-protein kinase pim-1 (Homo sapiens, UniProt P11309); experiment: Selectivity interaction (SelectScreen profiling (Invitrogen)) EUB0000607a PIM1; conditions: at 2 µM
Chain of Serine/threonine-protein kinase pim-1 (P11309 whole entry, looked up): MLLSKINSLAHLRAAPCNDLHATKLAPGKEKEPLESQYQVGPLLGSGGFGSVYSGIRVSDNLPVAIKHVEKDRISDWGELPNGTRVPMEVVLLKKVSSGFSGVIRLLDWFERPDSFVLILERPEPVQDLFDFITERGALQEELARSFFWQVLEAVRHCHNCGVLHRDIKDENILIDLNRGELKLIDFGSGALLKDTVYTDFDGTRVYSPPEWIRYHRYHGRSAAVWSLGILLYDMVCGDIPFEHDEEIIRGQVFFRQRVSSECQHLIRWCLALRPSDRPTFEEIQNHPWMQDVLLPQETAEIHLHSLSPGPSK

[12] = target: Mitogen-activated protein kinase 8 (Homo sapiens, UniProt P45983); experiment: Selectivity interaction (Kinase panel (Z-LYTE Assay)) EUB0001632a MAPK8; conditions: at 10 µM

Question: How did the % of control [1] turn out when `O=C(NOC[C@H](O)CO)c1ccc(F)c(F)c1Nc1ccc(I)cc1F` was run?
Answer: Its % of control is 100%.

Question: For `CC(=O)c1cc(-c2ccccc2OCC2CC2)c2ncccn12`, which % of control [2] is on record?
Answer: The % of control was 98%.

Question: For `CC[C@@H]1[C@H](F)C(=O)N[C@@H]1COc1nccc2cc(C(N)=O)c(OC)cc12` [ZIMLOVISERTIB], which % of inhibition ([3]; at 0.01 µM) is on record?
Answer: Its % of inhibition is 16%.

Question: And the % of inhibition ([3]; at 0.04 µM)?
Answer: The % of inhibition was 21.7%.

Question: What about the % of inhibition ([3]; at 0.2 µM) of the same compound?
Answer: The % of inhibition was 11.2%.

Question: And the % of inhibition ([3]; at 1 µM)?
Answer: Its % of inhibition is 11.8%.

Question: And the % of inhibition ([3]; at 5 µM)?
Answer: The % of inhibition was 28.8%.

Question: What about the % of inhibition ([4]; at 0.01 µM) of the same compound?
Answer: The % of inhibition was -3.8%.

Question: And the % of inhibition ([4]; at 0.04 µM)?
Answer: The % of inhibition was 5.4%.

Question: And the % of inhibition ([4]; at 0.2 µM)?
Answer: The % of inhibition was 31.8%.

Question: And the % of inhibition ([4]; at 1 µM)?
Answer: Its % of inhibition is 70.6%.

Question: What about the % of inhibition ([4]; at 5 µM) of the same compound?
Answer: The % of inhibition was 90%.

Question: And the % of inhibition [5]?
Answer: Its % of inhibition is 16.7%.

Question: `CCC(=O)N1CCN(c2ccc(-n3c(=O)ccc4cnc5ccc(-c6cnc7ccccc7c6)cc5c43)cc2C(F)(F)F)CC1` was tested. Which % of control [6] did it give?
Answer: The % of control was 100%.

Question: Which % of control ([7]; at 1 µM) does the source give for `C=CC(=O)Nc1cc(-n2c(=O)ccc3cnc4ccc(-c5ccc(NS(C)(=O)=O)cc5)cc4c32)ccc1C` here?
Answer: The % of control was 87%.

Question: And the % of control ([7]; at 10 µM)?
Answer: The % of control was 79%.

Question: For `O[C@H]1CC[C@H](Nc2ncc3nc(Nc4c(F)cc(F)cc4F)n([C@H]4CCOC4)c3n2)CC1`, which % of control [8] is on record?
Answer: Its % of control is 5.7%.

Question: `N#Cc1cccc(-c2c[nH]c3ncnc(N4CCOCC4)c23)c1` was tested. Which % of control [9] did it give?
Answer: The % of control was 55%.

Question: Which pXC50 [10] does the source give for `CCn1c(-c2nc3cc(C(=O)N4CCCC(N)C4)ccc3n2C)cc2ccccc21` (stereo unspecified) here?
Answer: The pXC50 was less than 4.4 M.

Question: Which % of inhibition [11] does the source give for `CNC(=O)Nc1ccc(-c2nc(N3CC4CCC(C3)O4)c3cnn(C4CCC5(CC4)OCCO5)c3n2)cc1` here?
Answer: The % of inhibition was 1%.

Question: For `Cn1cc(-n2cnc3c(NCc4nc5cc(Cl)c(Cl)cc5[nH]4)nc(N4CCOCC4)nc32)cn1`, which % of control [12] is on record?
Answer: The % of control was -4.21%.
